The results in this text go back to the NIST ThermoML archive (doi:10.1021/je8001128).

Numbers after ± are expanded uncertainties.

For this data set the following is noted: 298.15 K; 101 kPa; Liquid.
The term mass density denotes the mass of a sample divided by its volume. Broadly, the viscosity is the resistance of a fluid to flow. For the compound `CC(C)=O` [acetone], the mass density is given as 785.36 ± 0.81 kg/m3 and the viscosity is reported as 0.3 ± 0.1 mPa·s.
As for `CCOC=O` [ethyl methanoate], the viscosity worked out at 0.4 ± 0.1 mPa·s.
Still for that read-out and setting: the value for `COC(C)=O` [methyl ethanoate] was 0.4 ± 0.1 mPa·s.
Turning to `COC=O` [methyl methanoate], the mass density was 964.78 ± 0.45 kg/m3 and the viscosity turned out to be 0.3 ± 0.1 mPa·s.
